Consider 15 compounds from paper PMC4071583, “Potent Cytotoxic Peptides from the Australian Marine Sponge Pipestela candelabra” (Marine Drugs, 2014).

In data set [1] the test system is human xenograft cancer models. Set-up: method as in PMID 19825803. As to conditions: many human xenograft cancer models; cited from earlier work. For orientation: In xenograft studies the graft and the host belong to different species.
The test system of data set [2] is murine leukemia L1210 cell line. Set-up: method as in doi:10.1016/0040-4039(90)87015-R. The conditions noted are these: cited from earlier work.
Data set [3] has as its system Human prostate adenocarcinoma cells (PC3). Description: Cytotoxicity assay (Alamar blue), human prostate cancer cells PC3. The format is cell-based. As to conditions: for IC50: Homo sapiens, read-out: IC50 PC3. As for the experimental part: (§1) Human prostate adenocarcinoma cells (PC3) and human neonatal foreskin fibroblast (noncancer cells, NFF) were grown in media RPMI-1640 (Life Technologies, Grand Island, NY, USA) supplemented with 10% foetal bovine serum (FBS). Cells were grown under 5% CO2 in a humidified environment at 37°C. Fifty microlitres of media containing 500 cells were added to a 384 well microtitre plate (Perkin Elmer, Waltham, MA, USA, part number: 6007660) containing 0.2 μL of a compound. Final compound concentration range tested was 10 μM to 1 pM (final DMSO concentration of 0.4%). Each concentration in media was tested in triplicate and in two independent experiments. Cells and compounds were then incubated in 72 h at 37 °C, 5% CO2 and 80% humidity. Cell proliferation was measured with the addition of 10 μL of a 60% Alamar blue (Invitrogen, Carlsbad, CA, USA) solution in media to each well of the microtitre plate to give a final concentration of 10% Alamar blue. The plates were incubated at 37 °C, 5% CO2 and 80% humidity within 24 h. The fluorescence of each well was read at excitation 535 nm and emission 590 nm on the Perkin Elmer EnVision Multilabel Reader 2104. Eight-point concentration response curves were then analysed using non-linear regression and IC50 values determined by using GraphPad Prism 5 (GraphPad Software Inc., La Jolla, CA, USA). Paclitaxel and doxorubicin were used during each screening as positive control compounds.
In general terms: Resazurin is reduced to fluorescent resorufin, in cell work by metabolically active cells.

In data set [4] the test system is human neonatal foreskin fibroblast (noncancer cells, NFF). Description: Cytotoxicity assay (Alamar blue), human neonatal foreskin fibroblast non-cancer cells NFF. In kind it is cell-based. As to conditions: for IC50: read-out: IC50 NFF. As for the experimental part:
as §1

Data set [5] can be described thus: Auto-oxidation on storage, LC/MS analysis. As to conditions: dried compound stored at room temperature for a few months. In kind it is physicochemical. The source says:
We noticed that the dried milnamides A (5) and E (1) changed from white powders to yellow powders when the compounds were stored at room temperature for a few months. […] As in the previous study, we are unable to determine if milnamides A (5) and E (1) are naturally occurring or produced by auto-oxidation.

On the set-up of data set [6]: method as in PMID 15547903. The conditions noted are these: cited from earlier work.
A further data set concerns advanced solid tumors. Also on record: method as in PMID 19096380. The conditions noted are these: cited from earlier work.
[7] abbreviates: PC-3, PC3 cells, 72 h incubation, Alamar blue, mean of two independent experiments in triplicate.
Where [8] appears, read: NFF cells, 72 h incubation, Alamar blue, mean of two independent experiments in triplicate.

Structures are written as SMILES. Like-named read-outs stand apart in the source and are kept apart here.

For the compound `C/C(=C\[C@H](C(C)C)N(C)C(=O)[C@@H](NC(=O)[C@H]1CCCCN1C(C)C)C(C)(C)C)C(=O)O` [Compound E7974], the “in vivo antitumor efficacy” value in data set [1] is on record as “strong in vivo antitumor efficacy”.

For `C/C1=C\[C@@H](C)C[C@@H](C)OC(=O)[C@@H](C)NC(=O)[C@H](Cc2ccc(O)c(I)c2)N(C)C(=O)CNC(=O)[C@H](C)C1` [Compound 10, geodiamolide D], the IC50 in data set [2] was 62.2 nM; in data set [3] (PC-3, 72 h) it was 33.1 nM; in data set [4] (NFF, 72 h) it was 99.1 nM. In data set [3] (PC3 cells, comparator 11), the “fold more potent than geodiamolide E (11)” value amounted to 4 fold. The “fold more active than geodiamolide F (12)” value in data set [3] (PC3 cells, comparator 12) was 5 fold.

In the case of `C/C(=C\[C@H](C(C)C)N(C)C(=O)[C@@H](NC(=O)[C@H]1[N+](C)=Cc2c(c3ccccc3n2C)C1(C)C)C(C)(C)C)C(=O)O` [Compound 7, milnamide D], the IC50 was 381 nM in data set [3] (PC-3, 72 h) and 1190 nM in data set [4] (NFF, 72 h).

Turning to `CN[C@H](C(=O)N[C@H](C(=O)N(C)[C@H](/C=C(\C)C(=O)O)C(C)C)C(C)(C)C)C(C)(C)c1cn(C)c2ccccc12` [Compound 8, hemiasterlin], the IC50 in data set [3] (PC-3, 72 h) amounted to 0.0484 nM; in data set [4] (NFF, 72 h), 0.404 nM. Besides, in data set [3] (comparator 9), the “fold more cytotoxic than hemiasterlin A (9)” value was “six-fold”.

For `CC(=O)O[C@H]1C(=O)[C@@]2(C)[C@H]([C@H](OC(=O)c3ccccc3)[C@]3(O)C[C@H](OC(=O)[C@H](O)[C@@H](NC(=O)c4ccccc4)c4ccccc4)C(C)=C1C3(C)C)[C@]1(OC(C)=O)CO[C@@H]1C[C@@H]2O` [Taxol, Paclitaxel, reference compound], the IC50 in data set [3] (setting [7]) was found to be 2.26 nM; in data set [4] (setting [8]), 3.94 nM.

On to `CC(=CC(C(C)C)N(C)C(=O)C(NC(=O)C1[N+](C)=Cc2[nH]c3ccccc3c2C1(C)C)C(C)(C)C)C(=O)O` (stereo not shown) [Compound 3, milnamide G], for which, in data set [3] (PC-3, 72 h), the IC50 was 2870 nM. In addition, in data set [4] (NFF, read-out: % Inhibition NFF), the inhibition at 10 µM came to 39%.

As to `CNC(C(=O)NC(C(=O)N(C)C(C=C(C)C(=O)O)C(C)C)C(C)(C)C)C(C)(C)c1cn(C(O)C(=O)NC(C(=O)N(C)C(C=C(C)C(=O)O)C(C)C)C(C)(C)C)c2ccccc12` (stereo not shown) [Compound 4, hemiasterlin D], the IC50 in data set [3] (PC-3, 72 h) stood at 2.2 nM; in data set [4] (NFF, 72 h), 8.16 nM.

For the compound `C/C1=C\[C@@H](C)C[C@@H](C)OC(=O)[C@@H](C)NC(=O)[C@H](Cc2ccc(O)c(Cl)c2)N(C)C(=O)CNC(=O)[C@H](C)C1` [Compound 12, geodiamolide F], the IC50 is 11.2 nM in data set [2]; 155 nM in data set [3] (PC-3, 72 h); 708 nM in data set [4] (NFF, 72 h).

Consider `CC(=CC(C(C)C)N(C)C(=O)C(NC(=O)C1N(C)C(=O)c2[nH]c3ccccc3c2C1(C)C)C(C)(C)C)C(=O)O` (stereo not shown) [Compound 2, milnamide F], for which the IC50 worked out at 2180 nM in data set [3] (PC-3, 72 h) and 5650 nM in data set [4] (NFF, 72 h).

For `CC(=CC(C(C)C)N(C)C(=O)C(NC(=O)C1N(C)Cc2[nH]c3ccccc3c2C1(C)C)C(C)(C)C)C(=O)O` (stereo not shown) [Compound 1, milnamide E], the IC50 in data set [3] (PC-3, 72 h) is 34.2 nM; in data set [4] (NFF, 72 h), 123 nM. Moreover, the “milnamide D (7) or G (3) formed by auto-oxidation (LC/MS)” value in data set [5] is on record as 5%–10%.

With `C/C(=C\[C@H](C(C)C)N(C)C(=O)[C@@H](NC(=O)[C@H]1N(C)C(=O)c2c(c3ccccc3n2C)C1(C)C)C(C)(C)C)C(=O)O` [Compound 6, milnamide C], the IC50 in data set [3] (PC-3, 72 h) turned out to be 31.7 nM; in data set [4] (NFF, 72 h) it was 188 nM.

For the compound `C/C1=C\[C@@H](C)C[C@@H](C)OC(=O)[C@@H](C)NC(=O)[C@H](Cc2ccc(O)c(Br)c2)N(C)C(=O)CNC(=O)[C@H](C)C1` [Compound 11, geodiamolide E], the IC50 in data set [2] is 24.2 nM; in data set [3] (PC-3, 72 h) it was 118 nM; in data set [4] (NFF, 72 h), 425 nM.

For the compound `C/C(=C\[C@H](C(C)C)N(C)C(=O)[C@@H](NC(=O)[C@H]1N(C)Cc2c(c3ccccc3n2C)C1(C)C)C(C)(C)C)C(=O)O` [Compound 5, milnamide A], the IC50 in data set [3] (PC-3, 72 h) was determined as 11 nM; in data set [4] (NFF, 72 h), 70.6 nM. In addition, the “fold more potent than milnamide C (6)” value in data set [3] (PC3 cells, comparator 6) was 3 fold. The “fold more potent than milnamide C (7)” value in data set [3] (PC3 cells, comparator 7) is 35 fold. Also, in data set [6], the “auto-oxidation while standing in chloroform” value was “auto-oxidized slowly to milamide D (7)”. The “milnamide D (7) or G (3) formed by auto-oxidation (LC/MS)” value in data set [5] was 5%–10%.

For `COc1cccc2c1C(=O)c1c(O)c3c(c(O)c1C2=O)C[C@@](O)(C(=O)CO)C[C@@H]3O[C@H]1C[C@H](N)[C@H](O)[C@H](C)O1` [Doxorubicin, doxorubicin, reference compound], the IC50 in data set [3] (setting [7]) turned out to be 359 nM; in data set [4] (setting [8]), 530 nM.

As for `CN[C@H](C(=O)N[C@H](C(=O)N(C)[C@H](/C=C(\C)C(=O)O)C(C)C)C(C)(C)C)C(C)(C)c1ccccc1` [HTI-286], the common toxicities observed entry in the data set with advanced solid tumors is “neutropaenia, nausea, alopecia, and pain”. Moreover, the objective responses result in the data set with advanced solid tumors (phase II trial halted) was “no objective responses”.

What is called IC50 is the concentration at which inhibition is half-maximal. What is called inhibition is the share of the control response that was lost under treatment.
